Entries after “also recorded” stand apart in the source; their conditions may differ.

The results in this text go back to patent publication US10961309B2, “Reducing systemic regulatory T cell levels or activity for treatment of disease and injury of the CNS” (Yeda Research and Development Co. Ltd, priority 2014, dated 2021).

Format in all cases: in vivo, mouse
Assay [1] deals with splenocytes (CD4+Foxp3+ Tregs, CD4+ IFN-γ+ T cells). Put plainly: Flow cytometry of splenocytes. How it is done: (§1) Mice were transcardially perfused with PBS, and tissues were treated as previously described (Baruch et al, 2013). Brains were dissected and the different brain regions were removed under a dissecting microscope (Stemi DV4; Zeiss) in PBS, and tissues were dissociated using the gentleMACS™ dissociator (Miltenyi Biotec). Choroid plexus tissues were isolated from the lateral, third and fourth ventricles of the brain, incubated at 37° C. for 45 min in PBS (with Ca^2+/Mg^2+) containing 400 U/ml collagenase type IV (Worthington Biochemical Corporation), and then manually homogenized by pipetting. Spleens were mashed with the plunger of a syringe and treated with ACK (ammonium chloride potassium) lysing buffer to remove erythrocytes. In all cases, samples were stained according to the manufacturers' protocols. All samples were filtered through a 70 μm nylon mesh, and blocked with anti-Fc CD16/32 (1:100; BD Biosciences). For intracellular staining of IFN-γ, the cells were incubated with […] (10 ng/ml; Sigma-Aldrich) and ionomycin (250 ng/ml; Sigma-Aldrich) for 6 h, and Brefeldin-A (10 μg/ml; Sigma-Aldrich) was added for the last 4 h. Intracellular labeling of cytokines was done with BD Cytofix/Cytoperm™ Plus fixation/permeabilization kit (cat. no. 555028). For Treg staining, an eBioscience FoxP3 staining buffer set (cat. no. 00-5523-00) was used. The following fluorochrome-labeled monoclonal antibodies were purchased from BD Pharmingen, BioLegend, R&D Systems, or eBiosciences, and used according to the manufacturers' protocols: PE or Alexa Fluor 450-conjugated anti-CD4; PE-conjugated anti-CD25; PerCP-Cy5.5-conjugated anti-CD45; FITC-conjugated anti-TCRβ; APC-conjugated anti-IFN-γ; APC-conjugated anti-FoxP3; Brilliant-violet-conjugated anti-CD45. Cells were analyzed on an LSRII cytometer (BD Biosciences) using FlowJo software. In each experiment, relevant negative control groups, positive controls, and single stained samples for each tissue were used to identify the populations of interest and to exclude other populations.

Assay [2] relates to Aβ plaques. Put plainly: Aβ plaque quantitation (immunohistochemistry). How it is done: Tissue processing and immunohistochemistry were performed on paraffin embedded sectioned mouse (6 μm thick) and human (10 μm thick) brains. For human ICAM-1 staining, primary mouse anti-ICAM (1:20 Abcam; ab2213) antibody was used. Slides were incubated for 10 min with 3% H2O2, and a secondary biotin-conjugated anti-mouse antibody was used, followed by biotin/avidin amplification with Vectastain ABC kit (Vector Laboratories). Subsequently, 3,3′-diaminobenzidine (DAB substrate) (Zytomed kit) was applied; slides were dehydrated and mounted with xylene-based mounting solution. For tissue stainings, mice were transcardially perfused with PBS prior to tissue excision and fixation. CP tissues were isolated under a dissecting microscope (Stemi DV4; Zeiss) from the lateral, third, and fourth ventricles of the brain. For whole mount CP staining, tissues were fixated with 2.5% paraformaldehyde (PFA) for 1 hour at 4° C., and subsequently transferred to PBS containing 0.05% sodium azide. Prior to staining, the dissected tissues were washed with PBS and blocked (20% horse serum, 0.3% Triton X-100, and PBS) for 1 h at room temperature. Whole mount staining with primary antibodies (in PBS containing 2% horse serum and 0.3% Triton X-100), or secondary antibodies, was performed for 1 h at room temperature. Each step was followed by three washes in PBS. The tissues were applied to slides, mounted with Immu-mount (9990402, from Thermo Scientific), and sealed with cover-slips. For staining of sectioned brains, two different tissue preparation protocols (paraffin embedded or microtomed free-floating sections) were applied, as previously described (Baruch et al, 2013; Kunis et al, 2013). The following primary antibodies were used: mouse anti-Aβ (1:300, Covance, #SIG-39320); rabbit anti-GFP (1:100, MBL, #598); rat anti-CD68 (1:300, eBioscience, #14-0681); rat anti-ICAM-1 (1:200, Abcam, #AB2213); goat anti-GFP (1:100, Abcam, #ab6658); rabbit anti-IBA-1 (1:300, Wako, #019-19741); goat anti-IL-10 (1:20, R&D systems, #AF519); rat anti-Foxp3 (1:20, eBioscience, #13-5773-80); rabbit anti-CD3 (1:500, Dako, #IS503); mouse anti-ZO-1, mouse anti-E-Cahedrin, and rabbit anti-Claudin-1 (all 1:100, Invitrogen, #33-9100, #33-4000, #51-9000); rabbit anti-GFAP (1:200, Dako, #Z0334). Secondary antibodies included: Cy2/Cy3/Cy5-conjugated donkey anti-mouse/goat/rabbit/rat antibodies (1:200; all from Jackson Immunoresearch). The slides were exposed to Hoechst nuclear staining (1:4000; Invitrogen Probes) for 1 min. Two negative controls were routinely used in immunostaining procedures, staining with isotype control antibody followed by secondary antibody, or staining with secondary antibody alone. For Foxp3 intracellular staining, antigen retrieval from paraffin-embedded slides was performed using Retreivagen Kit (#550524, #550527; BD Pharmingen™). Microscopic analysis, was performed using a fluorescence microscope (E800; Nikon) or laser-scanning confocal microscope (Carl Zeiss, Inc.). The fluorescence microscope was equipped with a digital camera (DXM 1200F; Nikon), and with either a 20× NA 0.50 or 40× NA 0.75 objective lens (Plan Fluor; Nikon). The confocal microscope was equipped with LSM 510 laser scanning capacity (three lasers: Ar 488, HeNe 543, and HeNe 633). Recordings were made on postfixed tissues using acquisition software (NIS-Elements, F3 [Nikon] or LSM [Carl Zeiss, Inc.]). For quantification of staining intensity, total cell and background staining was measured using ImageJ software (NIH), and intensity of specific staining was calculated, as previously described (Burgess et al, 2010). Images were cropped, merged, and optimized using Photoshop CS6 13.0 (Adobe), and were arranged using Illustrator CS5 15.1 (Adobe).
From each brain, 6 μm coronal slices were collected, and eight sections per mouse, from four different pre-determined depths throughout the region of interest (dentate gyrus or cerebral cortex) were immunostained. […]

The subject of assay [3] is CD11bhigh/CD45high mo-MΦ, CD4+ T cells, Foxp3+ Tregs in the brain. Put plainly: Flow cytometry of brain parenchyma / hippocampus. How it is done: as §1
Background: Flow cytometry measures light scatter and fluorescence of single cells or particles in a stream.

Where [4] appears, read: AD-Tg/DTR+ mice, 3 weeks after last DTx injection.

In the case of `CC1=C(/C=C/C(C)=C/C=C/C(C)=C/C(=O)O)C(C)(C)CCC1` [ATRA, All-trans retinoic acid], the “splenocyte frequencies of Foxp3+CD25+ Tregs” value in assay [1] (ATRA 8 mg/kg/d i.p. every other day 1 week vs vehicle (DMSO), 5-month 5XFAD AD-Tg mice) is listed as “significantly higher; also recorded: elevation”. Moreover, in assay [2] (3 weeks after last ATRA injection, AD-Tg mice), the “cerebral Aβ plaque burden” value is given as 2-3 fold increase.
As for Diphtheria toxin [DTx], in assay [3] (setting [4]), the “Foxp3+ Tregs among CD4+ T cells in the brain” value is recorded as “marked enrichment”; the “numbers of CD45high/CD11bhigh mo-MΦ and CD4+ T cells in brain parenchyma” value is “increased numbers; also recorded: elevated numbers”.
For Glatiramer acetate [GA], in assay [1] (weekly-GA, 5XFAD AD-Tg mice, end of 1st week of regimen), the “splenocyte Foxp3+ Treg levels” value is “reduced”. Also, in assay [3] (weekly-GA, AD-Tg non-chimeric mice, 2nd week of regimen), the “numbers of CD11bhighCD45high-expressing cells in the hippocampus” value was “increased numbers”. Besides, the Aβ plaque load result in assay [2] (daily-GA 100 μg s.c. for 1 month, 5XFAD AD-Tg mice) was “did not show any beneficial effect, or showed a moderate adverse effect on plaque load”. In addition, in assay [2] (weekly-GA, 5XFAD AD-Tg mice), the “Aβ plaque load (percentage of total area of hippocampal dentate gyrus)” value is given as “robust effect; also recorded: reduction in Aβ plaque load” and the “mean Aβ plaque numbers” value was “reduction”.
